Results reported in patent US20220370440A1 (Lead Discovery Center GmbH, priority 2018, published 2022).

Tests used:
[1] = target: EGFR T790ML858R (Homo sapiens, UniProt P00533, L858R/T790M); assay: EGFR T790ML858R Lance assay; assay type: biochemical
Protocol: (§1) Inhibition is indicated as […] [nM] (“−”=not measured). Compounds having an activity designated as “A” provided an IC50≤100 nM; compounds having an activity designated as “B” provided an 100 nM<IC50≤500 nM; compounds having an activity designated as “C” provided an 500 nM<IC50≤1000 nM; compounds having an activity designated as “D” provided an 1000 nM<IC50≤100000 nM; and compounds having an activity designated as “E” provided an IC50>10000 nM.

[2] = target: Her2 Exon 20 INSYVMA Ba/F3 (Homo sapiens, UniProt P04626, DUP772-775, cells depend on it); assay: Her2 Exon 20 INSYVMA Ba/F3 CellTiter-Glo; assay type: cell-based; conditions: CellTiter-Glo, 72 h, read-out: Her2 Exon 20 INSYVMA Ba/F3 CTG IC50
In short: (§2)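 IC50 values come from dose–response fits of CellTiter-Glo luminescence in Ba/F3 cells treated with compound for 72 h at 37 °C, 5% CO2. Vehicle (DMSO) and 10 μM staurosporine wells set the assay window, with Z′ ≥0.5 required.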

[3] = Metabolic stability in mouse liver microsomes without cofactor NADPH; assay type: in vitro ADME; conditions: 3 μM test compound, mouse liver microsomes, without NADPH, 50 min, 37° C., LC-MS/MS
In short: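 Cofactor-free incubation: no NADPH added to mouse liver microsomes, with compound at 3 μM and 37° C. Remaining parent was quantified by LC-MS/MS at time points up to 50 minutes to track depletion.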

[4] = target: EGFR Exon 20 INSNPH Ba/F3 (Homo sapiens, UniProt P00533, DUP771-773, cells depend on it); assay: EGFR Exon 20 INSNPH Ba/F3 CellTiter-Glo; assay type: cell-based; conditions: CellTiter-Glo, 72 h, read-out: EGFR Exon 20 INSNPH Ba/F3 CTG IC50
Sequence of EGFR Exon 20 INSNPH Ba/F3 (P00533 with tags, fused parts or gaps DUP771-773): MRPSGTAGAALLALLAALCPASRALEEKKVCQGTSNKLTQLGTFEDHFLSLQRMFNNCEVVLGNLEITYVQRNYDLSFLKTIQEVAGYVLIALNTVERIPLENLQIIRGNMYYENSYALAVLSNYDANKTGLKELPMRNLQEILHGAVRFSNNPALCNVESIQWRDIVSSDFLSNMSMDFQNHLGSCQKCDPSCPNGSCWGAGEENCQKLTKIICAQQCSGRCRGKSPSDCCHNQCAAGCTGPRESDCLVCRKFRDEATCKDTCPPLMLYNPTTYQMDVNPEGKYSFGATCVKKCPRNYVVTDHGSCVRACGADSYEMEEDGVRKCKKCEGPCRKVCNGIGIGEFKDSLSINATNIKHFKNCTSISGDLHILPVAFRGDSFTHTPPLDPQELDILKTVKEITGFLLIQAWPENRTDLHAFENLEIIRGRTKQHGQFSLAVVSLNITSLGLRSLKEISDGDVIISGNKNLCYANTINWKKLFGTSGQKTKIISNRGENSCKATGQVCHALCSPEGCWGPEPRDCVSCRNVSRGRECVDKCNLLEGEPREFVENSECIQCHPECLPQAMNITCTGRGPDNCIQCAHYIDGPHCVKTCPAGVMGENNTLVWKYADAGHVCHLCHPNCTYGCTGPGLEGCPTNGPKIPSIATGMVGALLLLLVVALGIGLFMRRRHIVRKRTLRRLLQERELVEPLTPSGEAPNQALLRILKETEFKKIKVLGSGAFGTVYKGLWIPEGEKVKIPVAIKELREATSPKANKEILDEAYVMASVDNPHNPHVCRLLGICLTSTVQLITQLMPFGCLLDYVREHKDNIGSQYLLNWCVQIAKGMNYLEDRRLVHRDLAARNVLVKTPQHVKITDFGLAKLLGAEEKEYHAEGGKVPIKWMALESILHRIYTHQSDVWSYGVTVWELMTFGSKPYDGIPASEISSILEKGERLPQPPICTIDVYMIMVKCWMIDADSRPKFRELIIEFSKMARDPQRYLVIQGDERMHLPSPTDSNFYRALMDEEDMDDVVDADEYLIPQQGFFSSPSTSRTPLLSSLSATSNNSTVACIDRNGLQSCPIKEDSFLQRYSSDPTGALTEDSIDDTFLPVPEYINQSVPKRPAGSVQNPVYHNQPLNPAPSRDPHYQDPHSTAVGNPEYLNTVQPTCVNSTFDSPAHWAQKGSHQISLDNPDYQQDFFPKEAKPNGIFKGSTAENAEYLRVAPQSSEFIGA
In short: as §2

[5] = target: T1, HER2 INS YVMA (Homo sapiens, UniProt P04626, INS775YVMA); assay: Lance Kinase Activity Assay, HER2 INS YVMA (Her2 Exon 20 INSYVMA Lance); assay type: biochemical; conditions: biochemical Lance assay
T1 construct: purchased DPF
T1 sequence (P04626 with tags, fused parts or gaps INS775YVMA): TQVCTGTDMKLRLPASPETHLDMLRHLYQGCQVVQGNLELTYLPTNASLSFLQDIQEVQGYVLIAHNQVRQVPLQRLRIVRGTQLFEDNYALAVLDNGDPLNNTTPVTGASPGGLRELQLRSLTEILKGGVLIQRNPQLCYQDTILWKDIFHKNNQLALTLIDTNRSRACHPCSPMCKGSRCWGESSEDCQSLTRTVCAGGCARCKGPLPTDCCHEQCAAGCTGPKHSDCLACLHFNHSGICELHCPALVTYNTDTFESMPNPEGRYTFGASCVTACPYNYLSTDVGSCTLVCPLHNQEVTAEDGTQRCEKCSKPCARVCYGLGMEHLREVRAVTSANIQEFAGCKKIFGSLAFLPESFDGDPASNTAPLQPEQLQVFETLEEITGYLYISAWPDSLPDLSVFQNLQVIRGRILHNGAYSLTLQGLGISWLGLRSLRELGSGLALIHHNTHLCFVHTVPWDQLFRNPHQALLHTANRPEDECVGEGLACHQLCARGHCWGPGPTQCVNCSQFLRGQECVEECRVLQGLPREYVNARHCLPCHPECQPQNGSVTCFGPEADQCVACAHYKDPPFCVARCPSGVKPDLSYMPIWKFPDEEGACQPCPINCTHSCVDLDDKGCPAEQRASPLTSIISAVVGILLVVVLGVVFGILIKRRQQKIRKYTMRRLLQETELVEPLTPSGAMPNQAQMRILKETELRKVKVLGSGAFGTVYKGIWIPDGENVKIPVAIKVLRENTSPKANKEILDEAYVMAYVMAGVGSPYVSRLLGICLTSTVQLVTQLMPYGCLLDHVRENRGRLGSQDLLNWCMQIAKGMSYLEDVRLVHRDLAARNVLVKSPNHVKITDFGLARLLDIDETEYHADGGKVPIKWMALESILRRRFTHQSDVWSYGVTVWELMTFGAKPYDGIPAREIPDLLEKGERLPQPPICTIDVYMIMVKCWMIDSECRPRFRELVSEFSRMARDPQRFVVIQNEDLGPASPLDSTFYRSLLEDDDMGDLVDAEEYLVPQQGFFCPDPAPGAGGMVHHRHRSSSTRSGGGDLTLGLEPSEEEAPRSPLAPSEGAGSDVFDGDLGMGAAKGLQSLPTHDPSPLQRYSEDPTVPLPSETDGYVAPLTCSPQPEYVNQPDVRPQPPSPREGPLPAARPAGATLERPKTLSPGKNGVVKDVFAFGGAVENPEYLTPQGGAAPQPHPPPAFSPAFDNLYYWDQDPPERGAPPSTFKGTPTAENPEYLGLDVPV
In short: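 IC50 was fitted to sigmoidal curves of TR-FRET signal (665 and 615 nm emission after 340 nm excitation) from an Eu anti-phospho antibody binding the phosphorylated ULight peptide. The ATP-started reaction ran 1 h at RT and was then quenched with 10 mM EDTA plus antibody for a further 1 h. Compounds were tested as 8-point, 3-fold dilutions.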

[6] = tested on: H1975; assay: H1975 CellTiter-Glo; assay type: cell-based; conditions: Homo sapiens, NCI-H1975; 72 h compound incubation; read-out: H1975 CTG IC50
In short: (§3)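 72 h compound exposure after 24 h attachment, 37° C./5% CO2; CellTiter-Glo ATP luminescence read-out; IC50 by dose-response fit; DMSO vehicle and 10 μM Staurosporine as controls; plates accepted only if Z′ ≥0.5.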

[7] = target: EGFR wt (Homo sapiens, UniProt P00533); assay: EGFR wt Lance assay; assay type: biochemical
Sequence of EGFR wt (P00533 25-1210): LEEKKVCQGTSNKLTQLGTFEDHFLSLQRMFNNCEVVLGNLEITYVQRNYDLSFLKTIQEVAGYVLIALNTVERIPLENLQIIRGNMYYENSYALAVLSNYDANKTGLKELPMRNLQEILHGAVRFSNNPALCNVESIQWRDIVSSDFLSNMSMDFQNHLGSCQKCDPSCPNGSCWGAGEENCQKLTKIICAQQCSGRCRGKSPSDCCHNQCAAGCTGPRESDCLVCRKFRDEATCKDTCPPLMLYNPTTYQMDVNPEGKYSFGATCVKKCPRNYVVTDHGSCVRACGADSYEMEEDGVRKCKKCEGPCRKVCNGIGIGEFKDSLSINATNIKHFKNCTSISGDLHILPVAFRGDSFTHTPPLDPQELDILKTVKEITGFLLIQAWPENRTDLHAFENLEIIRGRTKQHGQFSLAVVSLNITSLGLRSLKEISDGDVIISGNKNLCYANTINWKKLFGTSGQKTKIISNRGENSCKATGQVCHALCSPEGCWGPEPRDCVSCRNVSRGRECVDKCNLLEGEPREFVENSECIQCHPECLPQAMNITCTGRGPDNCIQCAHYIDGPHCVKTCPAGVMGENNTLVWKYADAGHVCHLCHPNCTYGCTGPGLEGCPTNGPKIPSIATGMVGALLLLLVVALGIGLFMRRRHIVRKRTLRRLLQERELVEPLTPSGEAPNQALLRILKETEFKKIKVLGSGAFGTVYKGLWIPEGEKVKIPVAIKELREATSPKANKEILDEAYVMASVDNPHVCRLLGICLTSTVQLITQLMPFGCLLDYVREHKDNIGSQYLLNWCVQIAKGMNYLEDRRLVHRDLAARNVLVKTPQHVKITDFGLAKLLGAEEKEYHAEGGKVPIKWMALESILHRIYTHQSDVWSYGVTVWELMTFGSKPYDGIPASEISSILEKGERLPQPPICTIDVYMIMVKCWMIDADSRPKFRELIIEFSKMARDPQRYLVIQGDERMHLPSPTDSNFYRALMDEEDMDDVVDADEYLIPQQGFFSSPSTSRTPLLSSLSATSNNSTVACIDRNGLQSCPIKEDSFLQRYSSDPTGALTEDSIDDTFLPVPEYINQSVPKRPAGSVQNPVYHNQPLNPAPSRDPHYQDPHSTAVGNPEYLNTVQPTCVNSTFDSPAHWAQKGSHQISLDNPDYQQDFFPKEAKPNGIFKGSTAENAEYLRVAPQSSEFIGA
Protocol: as §1

[8] = tested on: A431; assay: A431 CellTiter-Glo; assay type: cell-based; conditions: Homo sapiens, A-431; 72 h compound incubation; read-out: A431 CTG IC50
In short: as §3

Sequence of EGFR T790ML858R (P00533 25-1210 T790M/L858R): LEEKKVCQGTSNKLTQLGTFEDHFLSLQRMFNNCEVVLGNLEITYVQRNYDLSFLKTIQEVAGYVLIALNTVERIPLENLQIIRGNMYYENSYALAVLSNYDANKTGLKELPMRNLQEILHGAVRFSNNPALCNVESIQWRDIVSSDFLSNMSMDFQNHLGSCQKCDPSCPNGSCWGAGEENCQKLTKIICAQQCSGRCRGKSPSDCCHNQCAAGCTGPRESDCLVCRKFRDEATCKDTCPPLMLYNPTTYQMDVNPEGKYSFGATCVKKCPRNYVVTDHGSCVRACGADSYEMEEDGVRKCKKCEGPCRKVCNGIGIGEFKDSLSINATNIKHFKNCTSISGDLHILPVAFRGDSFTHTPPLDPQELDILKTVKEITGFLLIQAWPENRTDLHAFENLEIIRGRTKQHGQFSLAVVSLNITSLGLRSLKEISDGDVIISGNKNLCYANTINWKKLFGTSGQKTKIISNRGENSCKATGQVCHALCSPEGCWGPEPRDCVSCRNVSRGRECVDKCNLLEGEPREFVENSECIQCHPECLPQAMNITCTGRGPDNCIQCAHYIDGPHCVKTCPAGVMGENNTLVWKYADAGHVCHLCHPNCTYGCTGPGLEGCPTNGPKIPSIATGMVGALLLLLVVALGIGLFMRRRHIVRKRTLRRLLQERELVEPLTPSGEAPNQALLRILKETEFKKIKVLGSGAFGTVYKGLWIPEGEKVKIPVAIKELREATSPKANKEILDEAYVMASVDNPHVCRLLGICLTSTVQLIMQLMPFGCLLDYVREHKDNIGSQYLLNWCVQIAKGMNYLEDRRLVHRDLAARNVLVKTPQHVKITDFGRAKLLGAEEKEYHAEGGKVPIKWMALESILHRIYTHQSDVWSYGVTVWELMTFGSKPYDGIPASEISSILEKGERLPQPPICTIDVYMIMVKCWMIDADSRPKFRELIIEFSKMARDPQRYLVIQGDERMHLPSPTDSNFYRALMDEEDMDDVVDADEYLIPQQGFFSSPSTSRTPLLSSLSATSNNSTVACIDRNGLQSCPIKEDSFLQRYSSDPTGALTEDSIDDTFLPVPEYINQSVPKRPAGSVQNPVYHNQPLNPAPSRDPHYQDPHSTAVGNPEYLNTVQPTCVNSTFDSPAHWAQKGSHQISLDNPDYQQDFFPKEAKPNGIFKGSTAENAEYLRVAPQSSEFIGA

SMILES | IC50 [1] [µM] | GI50 [2] [µM] | Stability in presence of mouse liver microsomes without cofactor NADPH [% remaining after 50 min] [3] [% remaining after 50 min] | GI50 [4] [µM] | IC50 [5] [µM] | IC50 [6] [µM] | IC50 [7] [µM] | IC50 [8] [µM]
C=CC(=O)N1CCc2ccc(-c3c(-c4ccc(OCCN(C)C)cc4)[nH]c4nccc(Cl)c34)cc21 [Example 67, 1-(6-(4-chloro-2-(4-(2-(dimethylamino)ethoxy)phenyl)-1H-pyrrolo[2,3-b]pyridin-3-yl)indolin-1-yl)prop-2-en-1-one] | ≤ 0.1 | 0.1 to 0.5 | >99 | 0.1 to 0.5 | ≤ 0.1 | 0.1 to 0.5 | ≤ 0.1 | 1 to 100
C=CC(=O)Nc1cc(-c2c(-c3ccc(N(C)CCN(C)C)cc3)[nH]c3nccc(Cl)c23)ccc1C [Example 43, N-(5-(4-chloro-2-(4-((2-(dimethylamino)ethyl)(methyl)amino)phenyl)-1H-pyrrolo[2,3-b]pyridin-3-yl)-2-methylphenyl)acrylamide] | ≤ 0.1 | ≤ 0.1 | >99 | ≤ 0.1 | ≤ 0.1 | ≤ 0.1 | ≤ 0.1 | 0.1 to 0.5
C=CC(=O)Nc1cc(-c2c(-c3ccc(N4CCN(CC)CC4)cc3)[nH]c3nccc(Cl)c23)ccc1C [Example 40, N-(5-(4-chloro-2-(4-(4-ethylpiperazin-1-yl)phenyl)-1H-pyrrolo[2,3-b]pyridin-3-yl)-2-methylphenyl)acrylamide] | ≤ 0.1 | ≤ 0.1 | >99 | ≤ 0.1 | ≤ 0.1 | ≤ 0.1 | ≤ 0.1 | 0.1 to 0.5
C=CC(=O)Nc1cc(-c2c(-c3ccc(N4CCN(C)CC4)cc3)[nH]c3ncc(C(=O)OC(C)C)cc23)cc(F)c1C [Example 165, isoproyl 3-(3-acrylamido-5-fluoro-4-methylphenyl)-2-(4-(4-methylpiperazin-1-yl)phenyl)-1H-pyrrolo[2,3-b]pyridine-5-carboxylate 2,2,2-trifluoroacetate] | ≤ 0.1 | 0.1 to 0.5 | >99 | 0.1 to 0.5 | ≤ 0.1 | 0.1 to 0.5 | ≤ 0.1 | 1 to 100
C=CC(=O)N1CCc2ccc(-c3c(-c4ccnc(N5CCN(C)CC5)c4)[nH]c4nccc(OC)c34)cc21 [Example 111, 1-(6-(4-methoxy-2-(2-(4-methylpiperazin-1-yl)pyridin-4-yl)-1H-pyrrolo[2,3-b]pyridin-3-yl)indolin-1-yl)prop-2-en-1-one] | ≤ 0.1 | ≤ 0.1 | 90 | ≤ 0.1 | ≤ 0.1 | ≤ 0.1 | ≤ 0.1 | 0.1 to 0.5
C=CC(=O)Nc1cc(-c2c(-c3ccc(OCCN(C)C)cc3)[nH]c3ncc(C(=O)OC(C)C)cc23)cc(F)c1C [Example 182, isopropyl 3-(3-acrylamido-5-fluoro-4-methylphenyl)-2-(4-(2-(dimethylamino)ethoxy)phenyl)-1H-pyrrolo[2,3-b]pyridine-5-carboxylate] | ≤ 0.1 | 0.1 to 0.5 | >99 | 0.1 to 0.5 | ≤ 0.1 | 0.1 to 0.5 | ≤ 0.1 | 1 to 100
C=CC(=O)N1CCCc2ccc(-c3c(-c4ccc(OCCN(C)C)cc4)[nH]c4nccc(Cl)c34)cc21 [Example 92, 1-(7-(4-chloro-2-(4-(2-(dimethylamino)ethoxy)phenyl)-1H-pyrrolo[2,3-b]pyridin-3-yl)-3,4-dihydroquinolin-1(2H)-yl)prop-2-en-1-one] | ≤ 0.1 | 0.5 to 1 | >99 | 1 to 10 | ≤ 0.1 | 0.5 to 1 | ≤ 0.1 | 1 to 100
C=CC(=O)N1CCc2ccc(-c3c(-c4ccc(CN5CCN(C)CC5)cc4)[nH]c4nccc(OC)c34)cc21 [Example 113, 1-(6-(4-methoxy-2-(4-((4-methylpiperazin-1-yl)methyl)phenyl)-1H-pyrrolo[2,3-b]pyridin-3-yl)indolin-1-yl)prop-2-en-1-one] | ≤ 0.1 | ≤ 0.1 | 96 | ≤ 0.1 | ≤ 0.1 | ≤ 0.1 | ≤ 0.1 | 0.1 to 0.5
C=CC(=O)Nc1cc(-c2c(-c3ccc(N4CCN(C(C)=O)CC4)cc3)[nH]c3nccc(OC)c23)ccc1C [Example 74, N-(5-(2-(4-(4-acetylpiperazin-1-yl)phenyl)-4-methoxy-1H-pyrrolo[2,3-b]pyridin-3-yl)-2-methylphenyl)acrylamide] | ≤ 0.1 | 0.5 to 1 | 90 | 0.1 to 0.5 | ≤ 0.1 | ≤ 0.1 | ≤ 0.1 | 0.5 to 1
C=CC(=O)Nc1cc(-c2c(-c3cnc(N4CCOCC4)nc3)[nH]c3nccc(Cl)c23)ccc1C [Example 36, N-(5-(4-chloro-2-(2-morpholinopyrimidin-5-yl)-1H-pyrrolo[2,3-b]pyridin-3-yl)-2-methylphenyl)acrylamide] | ≤ 0.1 | 1 to 10 | >99 | 1 to 10 | 0.5 to 1 | 0.1 to 0.5 | ≤ 0.1 | 1 to 100
C=CC(=O)N1CCCc2ccc(-c3c(-c4cccc(CN5CCN(C)CC5)c4)[nH]c4nccc(Cl)c34)cc21 [Example 95, 1-(7-(4-chloro-2-(3-((4-methylpiperazin-1-yl)methyl)phenyl)-1H-pyrrolo[2,3-b]pyridin-3-yl)-3,4-dihydroquinolin-1(2H)-yl)prop-2-en-1-one] | ≤ 0.1 | 1 to 10 | >99 | 1 to 10 | ≤ 0.1 | 0.5 to 1 | ≤ 0.1 | 1 to 100
C=CC(=O)Nc1cc(-c2c(-c3ccc(N(C)CCN(C)C)cc3)[nH]c3ncc(C(=O)OC(C)C)cc23)cc(F)c1C [Example 172, isopropyl 3-(3-acrylamido-5-fluoro-4-methylphenyl)-2-(4-((2-(dimethylamino)ethyl)(methyl)amino)phenyl)-1H-pyrrolo[2,3-b]pyridine-5-carboxylate] | ≤ 0.1 | 0.1 to 0.5 | >99 | 0.1 to 0.5 | ≤ 0.1 | 0.1 to 0.5 | ≤ 0.1 | 1 to 100
C=CC(=O)N1CCc2ccc(-c3c(-c4ccc(N5CCN(C(C)C)CC5)cc4)[nH]c4nccc(Cl)c34)cc21 [Example 62, 1-(6-(4-chloro-2-(4-(4-isopropylpiperazin-1-yl)phenyl)-1H-pyrrolo[2,3-b]pyridin-3-yl)indolin-1-yl)prop-2-en-1-one] | ≤ 0.1 | 0.1 to 0.5 | >99 | 0.1 to 0.5 | ≤ 0.1 | ≤ 0.1 | ≤ 0.1 | 0.5 to 1
C=CC(=O)Nc1cc(-c2c(-c3ccc(N4CCN(C(C)C)CC4)cc3)[nH]c3ncc(C(=O)OC(C)C)cc23)ccc1C [Example 176, isopropyl 3-(3-acrylamido-4-methylphenyl)-2-(4-(4-isopropylpiperazin-1-yl)phenyl)-1H-pyrrolo[2,3-b]pyridine-5-carboxylate] | ≤ 0.1 | 0.1 to 0.5 | >99 | 0.1 to 0.5 | ≤ 0.1 | 0.1 to 0.5 | ≤ 0.1 | 1 to 100
